The source of these data is PubChem BioAssay AID1259411 (Chemical Carcinogenesis Research Information System (CCRIS), 2018).

The subject of this data set is rodent carcinogenicity bioassays, tumor incidence. The data set is described as follows: CCRIS carcinogenicity studies. The essentials:
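NCI-built, expert-reviewed records of carcinogenicity and related test outcomes (mutagenicity, tumor promotion/inhibition) compiled from published and report sources, historical span 1985-2011, not updated.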

Activity calls are given as the source filed them. How the calls were made is not given here.

Turning to `O[C@@H]1[C@@H]2O[C@@H]2c2c(ccc3c2ccc2ccccc23)[C@H]1O`, the carcinogen call runs as follows: (Species: MOUSE, Strain/Sex: ICR/FEMALE, Route: INTRAPERITONEAL, Dose: 0, 8 NMOL IN 5 µL DMSO ON D 1, 16 NMOL IN 10 µL ON D 8 AND 32 NMOL IN 20 µL ON D 15 OF LIFE (STUDY DURATION: 35 WK)) “inactive; negative”; (Species: MOUSE, Strain/Sex: ICR/FEMALE, Route: INTRAPERITONEAL, Dose: 0, 500 NMOL (TOTAL DOSE) ADMINISTERED IN DOSES OF 1/7, 2/7, AND 4/7 ON DAYS 1, 7, AND 15 OF LIFE, RESPECTIVELY (STUDY DU, Tumor Site: Type of Lesion: LUNG: TUMOR) “active; positive”; (Species: MOUSE, Strain/Sex: ICR/MALE, Route: INTRAPERITONEAL, Dose: 0, 8 NMOL IN 5 µL DMSO ON D 1, 16 NMOL IN 10 µL ON D 8 AND 32 NMOL IN 20 µL ON D 15 OF LIFE (STUDY DURATION: 35 WK)) “inactive; negative”; (Species: MOUSE, Strain/Sex: ICR/MALE, Route: INTRAPERITONEAL, Dose: 0, 500 NMOL (TOTAL DOSE) ADMINISTERED IN DOSES OF 1/7, 2/7, AND 4/7 ON DAYS 1, 7 AND 15 OF LIFE , RESPECTIVELY (STUDY DU, Tumor Site: Type of Lesion: LUNG: TUMOR) “active; positive”.

With `O`, the carcinogen call was “inactive; negative” (Species: MOUSE, Strain/Sex: B6C3F1/FEMALE, Route: ORAL, Dose: 0, 0.5, 2% IN DIET FOR 96 WK FOLLOWED BY CONTROL DIET FOR 8 WK (STUDY DURATION: 104 WK), Dose: 0, 0.5, 2% IN DIET FOR 96 WK FOLLOWED BY CONTROL DIET FOR 8 WK (STUDY DURATION: 104 WK)); “inactive; negative” (Species: MOUSE, Strain/Sex: B6C3F1/FEMALE, Route: ORAL, Dose: 0, 500, 1250, 2500 PPM IN DRINKING WATER (APPROXIMATELY 0; 40; 90; 200 MG/KG BW) FOR 104 WK (STUDY DURATION: 105 WK), Dose: 0, 500, 1250, 2500 PPM IN DRINKING WATER (APPROXIMATELY 0; 40; 90; 200 MG/KG BW) FOR 104 WK (STUDY DURATION: 105 WK)); “inactive; negative” (Species: MOUSE, Strain/Sex: B6C3F1/MALE, Route: ORAL, Dose: 0, 0.5, 2% IN DIET FOR 96 WK FOLLOWED BY CONTROL DIET FOR 8 WK (STUDY DURATION: 104 WK), Dose: 0, 0.5, 2% IN DIET FOR 96 WK FOLLOWED BY CONTROL DIET FOR 8 WK (STUDY DURATION: 104 WK)); “inactive; negative” (Species: MOUSE, Strain/Sex: B6C3F1/MALE, Route: ORAL, Dose: 0, 500, 1250, 2500 PPM IN DRINKING WATER (APPROXIMATELY 0; 30; 75; 160 MG/KG BW) FOR 103 WK (STUDY DURATION: 103 WK), Dose: 0, 500, 1250, 2500 PPM IN DRINKING WATER (APPROXIMATELY 0; 30; 75; 160 MG/KG BW) FOR 103 WK (STUDY DURATION: 103 WK)); “inactive; negative” (Species: RAT, Strain/Sex: F344/FEMALE, Route: ORAL, Dose: 0, 500, 1250, 2500 PPM IN DRINKING WATER (APPROXIMATELY 0; 15; 45; 75 MG/KG BW) FOR 105 WK (STUDY DURATION: 106 WK), Dose: 0, 500, 1250, 2500 PPM IN DRINKING WATER (APPROXIMATELY 0; 15; 45; 75 MG/KG BW) FOR 105 WK (STUDY DURATION: 106 WK)); “inactive; negative” (Species: RAT, Strain/Sex: F344/MALE, Route: ORAL, Dose: 0, 500, 1250, 2500 PPM IN DRINKING WATER (APPROXIMATELY 0; 15; 30; 60 MG/KG BW) FOR 104 WK (STUDY DURATION: 105 WK), Dose: 0, 500, 1250, 2500 PPM IN DRINKING WATER (APPROXIMATELY 0; 15; 30; 60 MG/KG BW) FOR 104 WK (STUDY DURATION: 105 WK)). In addition, the carcinogen call is, setting by setting: (Species: RAT, Strain/Sex: WISTAR/MALE, Route: INHALATION, Dose: 0, 10 MG/M3 OF RESPIRABLE DUST 7 HR/D 5 D/WK FOR 224 DAYS DURING A PERIOD OF 12 MO (STUDY DURATION: 29 MO), Tumor Site: Type of Lesion: LUNG: ADENOMA OR CARCINOMA) “active; positive”; (Species: RAT, Strain/Sex: WISTAR/MALE, Route: INTRAPERITONEAL, Dose: 0, 25 MG OF DUST SUSPENDED IN 2 ML PHOSPHATE BUFFERED SALINE (STUDY DURATION: >418 D), Tumor Site: Type of Lesion: LUNG: MESOTHELIOMA) “active; positive”.

Take `O=C(O)C(Cl)(Cl)Cl`: the carcinogen call was “inactive; negative” (Species: MOUSE, Strain/Sex: B6C3F1/FEMALE, Route: INTRAPERITONEAL, Dose: 0, 1000 NMOL TOTAL DOSE, 1/3 AND 2/3 OF THE TOTAL DOSE ADMINISTERED AT 8 AND 15 DAYS OF AGE RESPECTIVELY, ANIMALS TERMIN); “inactive; negative” (Species: MOUSE, Strain/Sex: B6C3F1/FEMALE, Route: INTRAPERITONEAL, Dose: 0, 2000 NMOL TOTAL DOSE, 3/7 AND 4/7 OF THE TOTAL DOSE ADMINISTERED AT 8 AND 15 DAYS OF AGE RESPECTIVELY, ANIMALS TERMIN); “active; positive” (Species: MOUSE, Strain/Sex: B6C3F1/FEMALE, Route: ORAL, Dose: 0, 2, 6.67, 20 MMOL/L IN DRINKING WATER FOR 360 D (STUDY DURATION: 360 D), Dose: 0, 2, 6.67, 20 MMOL/L IN DRINKING WATER FOR 360 D (STUDY DURATION: 360 D), Tumor Site: Type of Lesion: LIVER: CARCINOMA); “active; positive” (Species: MOUSE, Strain/Sex: B6C3F1/FEMALE, Route: ORAL, Dose: 0, 2, 6.67, 20 MMOL/L IN DRINKING WATER FOR 576 D (STUDY DURATION: 576 D), Dose: 0, 2, 6.67, 20 MMOL/L IN DRINKING WATER FOR 576 D (STUDY DURATION: 576 D), Tumor Site: Type of Lesion: LIVER: ADENOMA, CARCINOMA); “inactive; negative” (Species: MOUSE, Strain/Sex: B6C3F1/MALE, Route: INTRAPERITONEAL, Dose: 0, 1000 NMOL TOTAL DOSE, 1/3 AND 2/3 OF THE TOTAL DOSE ADMINISTERED AT 8 AND 15 DAYS OF AGE RESPECTIVELY, ANIMALS TERMIN); “inactive; negative” (Species: MOUSE, Strain/Sex: B6C3F1/MALE, Route: INTRAPERITONEAL, Dose: 0, 2000 NMOL TOTAL DOSE, 3/7 AND 4/7 OF THE TOTAL DOSE ADMINISTERED AT 8 AND 15 DAYS OF AGE RESPECTIVELY, ANIMALS TERMIN). Besides, the carcinogen call (Species: MOUSE, Strain/Sex: B6C3F1/MALE, Route: ORAL, Dose: 0, 1, 2 G/L IN DRINKING WATER FOR 52 WK (STUDY DURATION: 52 WK), Dose: 0, 1, 2 G/L IN DRINKING WATER FOR 52 WK (STUDY DURATION: 52 WK), Tumor Site: Type of Lesion: LIVER: ADENOMA OR HEPATOCELLULAR CARCINOMA) was “active; positive”; the carcinogen call (Species: MOUSE, Strain/Sex: B6C3F1/MALE, Route: ORAL, Dose: 0, 5 G/L (0; 31 MILLIMOLAR) IN DRINKING WATER FOR 61 WK (STUDY DURATION: 61 WK), Dose: 0, 5 G/L (0; 31 MILLIMOLAR) IN DRINKING WATER FOR 61 WK (STUDY DURATION: 61 WK), Tumor Site: Type of Lesion: LIVER: CARCINOMA) is “active; positive”; the carcinogen call (Species: RAT, Strain/Sex: F344/MALE, Route: ORAL, Dose: 0, 0.05, 0.5, 5 G/L IN DRINKING WATER FOR 104 WK (STUDY DURATION: 104 WK), Dose: 0, 0.05, 0.5, 5 G/L IN DRINKING WATER FOR 104 WK (STUDY DURATION: 104 WK)) was “inactive; negative”.

Take `[Si]`: for the setting “Species: RAT, Strain/Sex: F344/FEMALE, Route: SUBCUTANEOUS IMPLANT, Dose: 10 X 20 X 0.3 MM SHEETS IMPLANTED INTO 2 SITES IN LATERAL ABDOMINAL REGION AND 1 SITE ON THE BACK (STUDY DURATION: 741 D, Tumor Site: Type of Lesion: IMPLANT SITE: MALIGNANT HISTIOCYTOMA”, the carcinogen call was “active; positive”.

Take `O=S(=O)(O)c1ccc2c(N=Nc3ccc(S(=O)(=O)O)c4ccccc34)c(O)c(S(=O)(=O)O)cc2c1`: the carcinogen call is “inactive; negative” (Species: MOUSE, Strain/Sex: SWISS-WEBSTER/FEMALE, Route: DERMAL, Dose: 0, 1% IN 0.1 ML DISTILLED WATER 1/WK FOR 19.5 MO (STUDY DURATION: 19.5 MO)); “inactive; negative” (Species: MOUSE, Strain/Sex: SWISS-WEBSTER/MALE, Route: DERMAL, Dose: 0, 1% IN 0.1 ML DISTILLED WATER 1/WK FOR 19.5 MO (STUDY DURATION: 19.5 MO)); “inactive; negative” (Species: RAT, Strain/Sex: WISTAR/FEMALE, Route: ORAL, Dose: 0, 50, 250, 1250 MG/KG IN THE DIET TO PUPS OF PARENTS EXPOSED TO THE SAME DOSE LEVELS FOR 60 D PRIOR TO MATING AND CONTI, Dose: 0, 50, 250, 1250 MG/KG IN THE DIET TO PUPS OF PARENTS EXPOSED TO THE SAME DOSE LEVELS FOR 60 D PRIOR TO MATING AND CONTI); “inactive; negative” (Species: RAT, Strain/Sex: WISTAR/MALE, Route: ORAL, Dose: 0, 50, 250, 1250 MG/KG IN THE DIET TO PUPS OF PARENTS EXPOSED TO THE SAME DOSE LEVELS FOR 60 D PRIOR TO MATING AND CONTI, Dose: 0, 50, 250, 1250 MG/KG IN THE DIET TO PUPS OF PARENTS EXPOSED TO THE SAME DOSE LEVELS FOR 60 D PRIOR TO MATING AND CONTI).
